Consider nine molecules from publication PMC6743424, “Phenolic acid phenethylesters and their corresponding ketones: Inhibition of 5‐lipoxygenase and stability in human blood and HepaRG cells” (Pharmacology Research & Perspectives, 2019).

Data set [1] concerns 5‐LO. To be noted: cited from earlier work.
Data set [2] has as its target T1, 5‐LO (Homo sapiens, UniProt P09917).
T1 sequence (P09917 1-674): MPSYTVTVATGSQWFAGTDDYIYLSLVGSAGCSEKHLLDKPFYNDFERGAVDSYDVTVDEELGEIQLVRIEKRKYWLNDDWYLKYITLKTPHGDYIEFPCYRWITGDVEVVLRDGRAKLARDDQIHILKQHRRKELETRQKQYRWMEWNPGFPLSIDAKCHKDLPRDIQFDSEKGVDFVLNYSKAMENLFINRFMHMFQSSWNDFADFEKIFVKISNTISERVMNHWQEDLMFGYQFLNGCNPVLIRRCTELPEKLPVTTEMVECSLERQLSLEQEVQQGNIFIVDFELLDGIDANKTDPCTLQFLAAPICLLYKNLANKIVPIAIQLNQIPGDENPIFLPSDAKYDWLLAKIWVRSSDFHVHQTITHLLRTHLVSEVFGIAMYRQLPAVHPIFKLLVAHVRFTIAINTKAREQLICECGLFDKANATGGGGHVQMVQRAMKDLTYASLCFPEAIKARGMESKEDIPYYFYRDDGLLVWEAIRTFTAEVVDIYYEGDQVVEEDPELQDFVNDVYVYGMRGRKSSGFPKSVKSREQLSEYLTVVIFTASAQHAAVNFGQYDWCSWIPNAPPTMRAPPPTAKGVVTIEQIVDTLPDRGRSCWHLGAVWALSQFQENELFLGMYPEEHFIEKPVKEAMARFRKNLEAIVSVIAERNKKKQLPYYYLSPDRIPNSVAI
Put plainly: Biosynthesis of 5‐LO products in stimulated HEK293 cells expressing 5‐LO and FLAP. To be noted: 1 μmol/L, 5 min preincubation; 10 μmol/L A23187 + 10 μmol/L arachidonic acid 15 min. The arrangement: expressed in transfected cells; host or cells: HEK293 cells (ATCC), stably transfected. It is filed as cell-based. As to the method:
HEK293 cells were obtained from ATCC (Manassas) and were cultured in Dulbecco’s Modified Eagle Medium (DMEM) supplemented with 10% fetal bovine serum. Cells were stably transfected with 5‐lipoxygenase and 5‐lipoxygenase activating protein (FLAP) as previously described.31
Transfected HEK293 cells were collected and resuspended in Hank's balanced salt solution (HBSS, Lonza) containing 1.6 mmol/L CaCl2 at a concentration of 5 × 10^5 cells/mL, and were preincubated with each compound at concentration of 1 µmol/L for 5 minutes at 37°C. Cells were then stimulated for 15 minutes at 37°C with the addition of 10 µmol/L calcium ionophore A23187 (Sigma‐Aldrich) and 10 µmol/L arachidonic acid (Cayman Chemical).28 Stimulations were stopped by adding 0.5 volume of cold CH3OH:CH3CN (1:1) containing 100 ng/mL of prostaglandin B2 (PGB2) as internal standard. Samples were stored at −20°C and analyzed for 5‐LO products using reversed‐phase high‐performance liquid chromatography (RP‐HPLC) as described previously.32
Figure 2 The structures of the tested compounds (A) and their effects on the biosynthesis of 5‐LO products in transfected HEK293 cells (B). HEK293 cells expressing 5‐LO and FLAP were incubated in presence of the indicated compounds (1 μmol/L) or their diluent (Control, 0.1% DMSO) for 5 minutes, followed by the addition of 10 μmol/L calcium ionophore A23187 and 10 μmol/L arachidonic acid for 15 minutes. Reactions were then stopped, and samples were processed for analysis of 5‐LO products using RP‐HPLC. Total 5‐LO products measured represent the sum of LTB4, its trans isomers and 5‐hydroxyeicosatetraenoic acid. Data are expressed as means ± SEM of at least three independent experiments. *Difference from control as determined using one‐way ANOVA with Dunnett's multiple comparison test (P < .05)

In data set [3] the test system is HepaRG cells. Briefly: Residual inhibition of 5‐LO product biosynthesis in blood after incubation with HepaRG cells. The format is in vitro ADME, human. To be noted: 50 µmol/L with HepaRG cells, after 60 minutes; medium added to blood, zymosan, LTB4. As for the experimental part:
(§1) Differentiated HepaRG cells, plated in 24 well plates, were washed with hepatocyte suspension medium (Williams E‐medium without phenol red, supplemented with 2 mmol/L Glutamax and […] HEPES) before addition of hepatocyte suspension medium (250 µL/well) containing (30 or 50 µmol/L) of the test compounds or their diluent. Cells were then incubated for 7.5, 15, 30, 60 or 90 minutes at 37°C after which the medium was removed.
In experiments where the inhibitory capacity of test compounds was to be determined after incubation with HepaRG cells, 125 µL of the hepatocyte suspension medium containing test compounds that had been collected at different time points from HepaRG cultures was added to 1 mL of heparinized blood. After a 5 minutes of preincubation, blood was then stimulated with opsonized zymosan and processed for HPLC analysis of 5‐LO metabolites as described above.
Figure 6 Stability of the test compounds for the inhibition of the biosynthesis of 5‐LO products following incubation with HepaRG cells. HepaRG cells were incubated with […] of hepatocyte suspension medium containing 50 µmol/L of test compounds for the indicated times at 37°C. Hepatocyte suspension medium (125 µL) was then removed and added to 1 mL of blood that was then incubated for 5 minutes and then stimulated with opsonized zymosan (4 mg/mL) for 30 minutes at 37°C. Blood was then centrifuged and plasma was collected and added to 1.2 mL of CH3OH:CH3CN (1:1). Samples were processed for analysis using RP‐HPLC for LTB4 quantification. Data are expressed as means ± SEM of at least three independent experiments. *Difference from time = 0, as determined using One‐way ANOVA with Dunnett's multiple comparison test (P < .05)

The test system of data set [4] is HepaRG cells. Put plainly: Kinetics of test compound disappearance in HepaRG cell culture (HPLC). The format is in vitro ADME, human. The conditions noted are these: 30 µmol/L, 37°C; mean (95% confidence interval), four experiments. As to the method:
Undifferentiated cryopreserved HepaRG cells (BioPredic International) were seeded in 12 or 24 well plates at 1.1 × 10^5 and 0.55 × 10^5 cells per well, respectively. Cells were cultured for 14 days in Williams E‐medium supplemented with 1% penicillin‐streptomycin (10 000 U/mL), 10% fœtal bovine serum (FBS), 50 mg/L hydrocortisone hemisuccinate, 5 mg/L insulin and 2 mmol/L Glutamax, and the medium was renewed every 2‐3 days. After 14 days, the culture medium was replaced by the same formulation as above supplemented with 2% dimethyl sulfoxide (DMSO) to induce differentiation. Cells were considered differentiated and ready for experiments after 14 days of differentiation (28 days after seeding).
as §1
In experiments where the test compounds incubated with HepaRG cells were to be measured, the cell layer was washed with 250 µL of hepatocyte suspension medium which was then pooled with the first medium. The mixture was then added to 250 µL of ice cold CH3OH:CH3CN (1:1, vol:vol) containing 10 µmol/L of phenethyl 3,4,5‐trimethoxycinnamate as an internal standard. The resulting solution was frozen at −80°C for 2 hour to precipitate any dissolved proteins, centrifuged at 1800g and the supernatant transferred to vials and stored at −20°C until HPLC analysis.
Figure 5 Kinetics of test compound disappearance in HepaRG cell culture. (A) HepaRG cells were incubated in 250 µL of hepatocyte suspension medium containing 30 µmol/L of test compounds for the indicated times at 37°C. Supernatants were removed and added to 250 µL of ice cold CH3OH:CH3CN (1:1 vol:vol) containing 10 µmol/L of phenethyl 3,4,5‐trimethoxycinnamate as an internal standard. The cell layer was washed with 250 µL of hepatocyte suspension medium and added to the above mixture. Samples were centrifuged at 1900g and the supernatants were collected for HPLC analysis as described in the Methods. Values are means ± SEM. (B) Calculated half‐lives of the test compounds in HepaRG cell cultures. Values are means (95% confidence interval). All data are from four independent experiments TEXT PRINTED IN THE PICTURE: (B) CAPE (2): Half-life (Minutes): 4.70 (4.42 - 5.02) | (B) 7: Half-life (Minutes): 6.42 (5.72 -7.31) | (B) 5: Half-life (Minutes): 3.71 (3.67-3.74) | (B) 8: Half-life (Minutes): 6.48 (6.01-7.04) | (B) 9: Half-life (Minutes): 4.38 (4.23 - 4.55) | (B) 10: Half-life (Minutes): 11.32 (10.21- 12.71)

Data set [5] concerns the target T1, 5‐LO. Briefly: Biosynthesis of 5‐LO products in thapsigargin‐stimulated human PMNL. The format is cell-based. The arrangement: endogenous in cells; host or cells: human polymorphonuclear leukocytes isolated from heparinized blood. To be noted: 5‐LO product biosynthesis in human PMNL; mean (95% confidence interval). As to the method:
Heparinized blood (see Ethics statement) was collected, centrifuged at 200g for 10 minutes to collect plasma, and erythrocytes were sedimented in dextran. PMNL were obtained after centrifugation on a lymphocyte separation medium cushion (density, 1.077 g/mL) (Wisent) at 900 g for 20 minutes, followed by hypotonic lysis to remove residual erythrocytes.33 PMNL were counted and resuspended at 10^7 cells/mL in HBSS supplemented with 1.6 mmol/L CaCl2 and 0.3 U/mL adenosine deaminase (Sigma‐Aldrich). PMNL were preincubated with the test compounds or their diluent (0.1% DMSO) for 5 minutes at 37°C and were then stimulated with 1 µmol/L thapsigargin (Sigma‐Aldrich) for 15 minutes at 37°C.27 Reactions were stopped by adding two volumes of CH3OH:CH3CN (1:1) containing the internal standard PGB2 (100 ng/mL), and samples were processed for RP‐HPLC analysis of 5‐LO products.
(A) The structures of CAPE (2) and its analogues investigated in this study. (B) Isolated human PMNL were incubated in presence of test compounds (1 μmol/L) or their diluent (Control, 0.1% DMSO) for 5 minutes. PMNL were stimulated with 1 μmol/L of thapsigargin for 15 minutes at 37°C. The stimulation was then stopped, and samples were processed for analysis of 5‐LO products using RP‐HPLC. Total 5‐LO products measured represent LTB4, its trans isomers, 20‐OH‐LTB4, 20‐COOH‐LTB4 and 5‐hydroxyeicosatetraenoic acid. Data are expressed as means ± SEM of at least three independent experiments. *Difference from control, as determined using one‐way ANOVA with Dunnett's multiple comparison test (P < .05)

Data set [6] deals with T1, 5‐LO. Briefly: Ex vivo whole blood stimulation with opsonized zymosan, 5‐LO products. It is filed as cell-based. Set-up: endogenous in cells; host or cells: human polymorphonuclear leukocytes isolated from heparinized blood. The conditions noted are these: 5‐LO product biosynthesis in whole blood, mean (95% confidence interval). As for the experimental part:
Blood was collected in tubes containing heparin as anticoagulant. Test compounds or their diluent control (DMSO, 0.1%) were added to 1 mL of heparinized blood at the indicated concentrations and incubated for 5 minutes in a water bath at 37°C. Stimulation was initiated with the addition of 125 μL of 40 mg/mL of opsonized zymosan, samples were then gently vortexed and incubated at 37°C for 30 minutes.34 Samples were then centrifuged at 960g for 10 minutes at 4°C, plasma was removed and added to tubes containing 4 volumes of CH3OH:CH3CN (1:1) containing 100 ng/mL of PGB2 as internal standard. Samples were stored overnight at −20°C, and then centrifuged at 3300g for 10 minutes. Samples were then purified on C18 cartridges, were eluted with CH3OH, dried under nitrogen, resuspended in 46% of CH3OH:CH3CN (1:1), and analyzed using RP‐HPLC as described above.

By IC50 is commonly meant the concentration needed to halve the response being measured. Higher therefore signals lower potency.

Molecules are shown by their SMILES. Entries after “also recorded” stand apart in the source; their conditions may differ.

Consider `O=C(C=Cc1ccccc1)OCCc1ccccc1` [cinnamic acid phenethyl ester], for which the “Inhibition of LT biosynthesis” value in the data set on 5‐LO [1] (at concentrations up to 10 µmol/L) was “do not inhibit LT biosynthesis”.
As to `O=C(O)/C=C/c1ccc(O)c(O)c1` [caffeic acid], in the data set on 5‐LO [1], the “Inhibition of LT biosynthesis and 5‐LO activity” value is given as “poor 5‐LO inhibitor”.
As to `CC(c1cc2ccccc2s1)N(O)C(N)=O` (stereo not shown) [Zileuton (1), Zileuton, reference compound], the “Inhibition of biosynthesis of 5‐LO products in transfected HEK293 cells” value on 5‐LO [2] is reported as “less effective than CAPE (2)”. For the same molecule, the “Inhibitory activity against 5‐LO product biosynthesis after incubation with HepaRG cells” value in the data set on HepaRG cells [3] is “steady manner over time”.
For `COc1cc(/C=C/C(=O)OCCc2ccccc2)cc(OC)c1O` [compound 9, sinapic acid phenethylester], the “Half-life in HepaRG cell cultures” value in the data set with HepaRG cells [4] is reported as 4.38 (4.23 - 4.55) Minutes. In addition, the figures for the IC50 against 5‐LO [5] and against 5‐LO [6] were 290 nM and 1910 nM, respectively. The “Inhibitory activity against 5‐LO product biosynthesis after incubation with HepaRG cells” value in the data set on HepaRG cells [3] was “lost all their inhibitory activity”.
For `O=C(C=Cc1ccc(O)c(O)c1)NCCc1ccccc1` [amide analogue of CAPE], in the data set with 5‐LO [1], the “Inhibition of LT biosynthesis and 5‐LO activity” value was “reduced potency compared to CAPE”.
On to `O=C(/C=C/c1cccc(O)c1O)OCCc1ccccc1` [compound 3], for which the “Inhibition of biosynthesis of 5‐LO products in transfected HEK293 cells” value on 5‐LO [2] is “very good inhibitory activity”.
Still for that read-out and setting: with `O=C(/C=C/c1ccc(O)cc1O)OCCc1ccccc1` [compound 4] the entry was “without measurable effect; also recorded: without inhibitory activity”; with `O=C(/C=C/c1cc(O)cc(O)c1)OCCc1ccccc1` [compound 6], “without measurable effect; also recorded: without inhibitory activity”.
On to `O=C(CCc1ccc(O)c(O)c1)OCCc1ccccc1` [saturated form of CAPE (2)], for which the “Inhibition of 5‐LO product biosynthesis” value in the data set on 5‐LO [1] is reported as “as effective”.
